# Assays:
# [1] = system: middle cerebral artery ischemia model of rat; test: Infarction inhibiting action in middle cerebral artery ischemia (MCAo-recirculation) model of rat; assay type: in vivo; conditions: ip, 24 h, 3 mg/kg i.p. 10 minutes before occlusion and 1 hour after recirculation, infarction volume one day after, vs control group, read-out: Rate of inhibition of infarction
# Excerpt: It is also known that, in this way, in the acute stage of cerebral infarction, the lesion proceeds to the peripheral tissue from the core of infarction, and death of the nerve cells is extended with the passage of several days. This possible not only extends and creates grave aftereffects, and causes loss of motor and mental function, but also finally critically influences on the life. As an in vivo experimental model of cerebral infarction which is capable of precisely evaluating the clinical effect of a medicine in conformity with clinical conditions of the disease of a patient of cerebral infarction, the middle cerebral artery occlusion (MCAo)-recirculation model comprising an embolus with a yarn using Wister rates may be used [Document: Japan Journal of Stroke, vol. 8, 1 (1986)]. […] This action was evaluated by applying the MCAo model by the method which will be described below.
# In rats of 10 weeks old, after etherization, a median incision of the cervical region was made up to the right carotid artery bifurcation under 1.0% halothane anesthetization with care to preserve the vagus nerves. The common carotid artery and the external carotid artery were separated from the periphery connective tissue with the right carotid artery bifurcation as the center, and each of the arteries was ligated by a 6-0 silk yarn (Eto yarn). Further, a yarn was wound on the internal carotid artery origin in preparation for ligation and fixing after insertion of the embolus. Next, the common carotid artery was incised, and the embolus was inserted from the common carotid artery to the internal carotid artery by about 15 to 16 mm, and ligated and fixed to the internal carotid artery by the silk yarn at the end thereof near the nylon yarn. In this operation, the end of the embolus was inserted into the anterior cerebral artery by about 1 to 2 mm beyond the middle cerebral artery bifurcation, and the inlet of the middle cerebral artery was occluded by the body (resin part) of the embolus for 1 hours. In recirculation, the embolus with a yarn was removed to recirculate the blood flow to the middle cerebral artery. 3 mg/kg of each of test compounds was intraperitoneally administered 10 minutes before occlusion and 1 hour after recirculation of the blood flow. One day after occlusion and recirculation, the whole body was perfused with physiologic saline through the heart, and the brain was extracted. The extracted brain was cooled with ice and water for 5 minutes, and cut at intervals of 2.0 mm to form 7 sections of the cerebral coronal surface. Each of the sections was stained with TTC (Triphenyltetrazolium Chloride), and fixed by a 5% neutral buffer formalin solution. In each of the sections, the infarction area in the right cerebral hemisphere was measured by an image analyzer (Olympus), and the infarction was evaluated by volume (mm^3). The infarction volume was compared with the infarction volume of a control group to calculate the rate of inhibition of infarction.
# cultured nerve cells = test: Action of protecting cultured nerve cells from glutamic acid toxicity (LDH leakage); assay type: cell-based, Wistar rat; conditions: rat fetal cerebral cortex cells, 10 mM glutamic acid, 24 hours, read-out: ED50 (the source's name)
# Excerpt: It is known that when the blood flow to the brain is temporarily clogged due to cerebral ischemia, hypoxia, or an trauma, delayed cerebral neuronal death is induced [Document: Brain Research, Vol. 239, 57 (1982)]. A possible cause of such damage of the cerebral nerve cells is excitatory toxicity due to an excitatory neutotransmitter such as glutamic acid or the like, which is excessively released with ischemia [Document: Trends in Neuroscience, vol. 10, 299 (1987)]. […] This is a problem to be solved by the invention. This action was evaluated by using the in vitro evaluation system which will be described below.
# A fetus was taken from the abdomen of a Wistar female rat on the 18 to 19th day of pregnancy under aseptic conditions, and the head of the fetus was opened to extract the brain. The brain was placed in an ice-cooled L-15 medium, and the cerebral cortex was separated under a microscope. The cerebral cortexes of about 30 rats were cut into pieces, and then suspended in 10 ml of a 0.25% trypsin solution and 0.2 ml of a 0.01% DNase solution, followed by culture at 37° C. for 30 minutes. Then, 2 ml of serum was added to the solution, and immediately the resultant mixture was centrifuged at 120 rpm for 2 minutes to separate the precipitates. To the precipitates was added 7 ml of a DF medium (a medium obtained by adding 20 nM of transferrin, 5 μg/ml of insulin, 20 nM of progesterone,60 nM of selenite, 50 U/ml of penicillin, and 50 U/ml of streptomycin to a mixture equivalent amounts of Dulbecco modified Eagle medium and F-12 medium), followed by 20 pipetting operations using a 10-ml plastic pipette to obtain a cell suspension. The cell suspension was filtered with nylon mesh (pore diameter 43 μm) to fractionate isolated cells. The thus-obtained isolated cells were diluted with a DF medium to a concentration of 6.0×10^5 cells/ml, and 500 μl of the diluted cells was inoculated in each of the 48 wells of a 48-well culture plate precoated with polylysine, followed by culture at 37° C. for 1 day in the presence of 5% of CO2. On the 2nd day, the medium was changed to a new DF medium, and 10 μl of a solution of 0.5M glutamic acid in distilled water was added to each of the wells (the final glutamic acid concentration was 10 mM), followed by further culture at 37° C. for 24 hours in the presence 5% of CO2. A test compound was dissolved in distilled water, 10% or 100% DMSO or 10% methanol, and 5 μl of the solution was added to each of the wells immediately before glutamic acid was added. As an index of nerve cell damage, the enzyme activity of lactic acid dehydrogenase (LDH) leaking from the damaged cells into the medium was measured. For each of the test compounds, the LDH leakage was measured at each of concentrations to determine a dose-response curve by the modified Cochran-Armitige method. The 50% effective dose (ED50) of each of the test compounds we determined from the curve.
Structure (SMILES),inhibition in vivo at 3 mg/kg [1] [%],EC50 (cultured nerve cells) [nM]
"Oc1ccc2c3c1O[C@H]1c4[nH]c5ccccc5c4C[C@@]4(O)[C@@H](C2)N(CC2CC2)CC[C@]314 [Compound 1, 17-cyclopropylmethyl-3,14β-dihydroxy-6,7-dehydro-4,5α-epoxy-6,7,2',3'-indolomorphinan]",23,
"Oc1ccc2c3c1O[C@H]1c4c(c5ccccc5n4-c4ccccc4)C[C@@]4(O)[C@@H](C2)N(CC2CC2)CC[C@]314 [Compound 4, 17-cyclopropylmethyl-3,14β-dihydroxy-6,7-dehydro-4,5α-epoxy-6,7,2',3'-(1'-phenylindolo)morphinan]",,80
"CCCCCCCc1ccc2c3c([nH]c2c1)[C@@H]1Oc2c(O)ccc4c2[C@@]12CCN(CC1CC1)[C@H](C4)[C@]2(O)C3 [Compound 7, 17-cyclopropylmethyl-3,14β-dihydroxy-6,7-dehydro-4,5α-epoxy-6,7,2',3'-(6'-heptylindolo)morphinan]",,200
"Oc1ccc2c3c1O[C@H]1c4[nH]c5c(cc(Cl)c6ccccc65)c4C[C@@]4(O)[C@@H](C2)N(CC2CC2)CC[C@]314 [Compound 10, 17-cyclopropylmethyl-3,14β-dihydroxy-6,7-dehydro-4,5α-epoxy-6,7,2',3'-(5'-chloro-6',7'-benzoindolo)morphinan]",15,
"N#Cc1cc2c3c([nH]c2c2ccccc12)[C@@H]1Oc2c(O)ccc4c2[C@@]12CCN(CC1CC1)[C@H](C4)[C@]2(O)C3 [Compound 11, 17-cyclopropylmethyl-3,14β-dihydroxy-6,7-dehydro-4,5α-epoxy-6,7,2',3'-(5'-cyano-6',7'-benzoindolo)morphian]",,138
"Cc1cc2c3c([nH]c2c2ccccc12)[C@@H]1Oc2c(O)ccc4c2[C@@]12CCN(CC1CC1)[C@H](C4)[C@]2(O)C3 [Compound 13, 17-cyclopropylmethyl-3,14β-dihydroxy-6,7-dehydro-4,5α-epoxy-6,7,2',3'-(5'-methyl-6',7'-benzoindolo)morphinan]",,93
"Oc1ccc2c3c1O[C@H]1c4[nH]c5c(cc(-c6ccccc6)c6ccccc65)c4C[C@@]4(O)[C@@H](C2)N(CC2CC2)CC[C@]314 [Compound 15, 17-cyclopropylmethyl-3,14β-dihydroxy-6,7-dehydro-4,5α-epoxy-6,7,2',3'-(5'-phenyl-6',7'-benzoindolo)morphinan]",,150
"COc1ccc2c3c1O[C@H]1c4[nH]c5ccc(C(C)(C)C)cc5c4C[C@@]4(O)[C@@H](C2)N(CC2CC2)CC[C@]314 [Compound 16, 17-cyclopropylmethyl-3-methoxy-14β-hydroxy-6,7-dehydro-4,5α-epoxy-6,7,2',3'-(5'-t-butylindolo)morphinan]",22,
"Oc1ccc2c3c1O[C@H]1c4[nH]c5c6c(ccc5c4C[C@@]4(O)[C@@H](C2)N(CC2CC2)CC[C@]314)Cc1ccccc1-6 [Compound 22, 17-cyclopropylmethyl-3,14β-dihydroxy-6,7-dehydro-4,5α-epoxy-6,7,2',3'-(6',7',2"",3""-indenoindolo)morphinan]",,50
"Oc1ccc2c3c1O[C@H]1c4[nH]c5c6ccccc6c6ccccc6c5c4C[C@@]4(O)[C@@H](C2)N(CC2CC2)CC[C@]314 [Compound 23, 17-cyclopropylmethyl-3,14β-dihydroxy-6,7-dehydro-4,5α-epoxy-6,7,2',3'-(4',5',6',7'-debenzoindolo)morphinan]",79,
"NCCCn1c2c(c3ccccc31)C[C@@]1(O)[C@H]3Cc4ccc(O)c5c4[C@@]1(CCN3CC1CC1)[C@H]2O5 [Compound 24, 17-cyclopropylmethyl-3,14β-dihydroxy-6,7-dehydro-4,5α-epoxy-6,7,2',3'-[1'-(3-aminopropyl)indolo]morphinan]",,800
"Oc1ccc2c3c1O[C@H]1c4c(c5ccccc5n4CCCN=C=S)C[C@@]4(O)[C@@H](C2)N(CC2CC2)CC[C@]314 [Compound 59, 17-cyclopropylmethyl-3,14β-dihydroxy-6,7-dehydro-4,5α-epoxy-6,7,2',3'-[1'-(3-isothiocyanatopropyl)indolo]morphinan]",,110
"Oc1ccc2c3c1O[C@H]1c4c(c5ccc6ccccc6c5n4CCCN=C=S)C[C@@]4(O)[C@@H](C2)N(CC2CC2)CC[C@]314 [Compound 60, 17-cyclopropylmethyl-3,14β-dihydroxy-6,7-dehydro-4,5α-epoxy-6,7,2',3'-[1'-(3-isothiocyanatopropyl)-6',7'-benzoindolo)morphinan]",,93
"O=C(/C=C/c1cccc(C(F)(F)F)c1)NCCCn1c2c(c3ccccc31)C[C@@]1(O)[C@H]3Cc4ccc(O)c5c4[C@@]1(CCN3CC1CC1)[C@H]2O5 [Compound 63, 17-cyclopropylmethyl-3,14β-dihydroxy-6,7-dehydro-4,5α-epoxy-6,7,2',3'-[1'-[3-(3-trifluoromethylcinnamido)propyl]indolo]morphinan]",,150
"O=C(/C=C/c1cccc(C(F)(F)F)c1)NCCCn1c2c(c3ccc4ccccc4c31)C[C@@]1(O)[C@H]3Cc4ccc(O)c5c4[C@@]1(CCN3CC1CC1)[C@H]2O5 [Compound 65, 17-cyclopropylmethyl-3,14β-dihydroxy-6,7-dehydro-4,5α-epoxy-6,7,2',3'-[1'-(3-(3-trifluoromethylcinnamamido)propyl)-6',7'-benzoindolo]morphinan]",,110
"Oc1ccc2c3c1O[C@H]1c4c(c5ccccc5n4Cc4ccccc4)C[C@@]4(O)[C@@H](C2)N(CC2CC2)CC[C@]314 [Compound 68, 17-cyclopropylmethyl-3,14β-dihydroxy-6,7-dehydro-4,5α-epoxy-6,7,2',3'-(1'-benzylindolo)morphinan]",,91
Cc1ccc(Cn2c3c(c4ccc5ccccc5c42)C[C@@]2(O)[C@H]4Cc5ccc(O)c6c5[C@@]2(CCN4CC2CC2)[C@H]3O6)cc1 [Compound 71],,19
"Oc1ccc2c3c1O[C@H]1c4c(c5cc6c7c(cccc7c5n4Cc4ccccc4)CC6)C[C@@]4(O)[C@@H](C2)N(CC2CC2)CC[C@]314 [Compound 83, 17-cyclopropylmethyl-3,14β-dihydroxy-6,7-dehydro-4,5α-epoxy-6,7,2',3'-(1'-benzyl-5',6""-ethano-6',7'-benzoindolo)morphinan]",,73
"Cn1c2c(c3cc4c5c(cccc5c31)CC4)C[C@@]1(O)[C@H]3Cc4ccc(O)c5c4[C@@]1(CCN3CC1CC1)[C@H]2O5 [Compound 84, 17-cyclopropylmethyl-3,14β-dihydroxy-6,7-dehydro-4,5α-epoxy-6,7,2',3'-(1'-methyl-5',6""-ethano-6',7'-benzoindolo)morphinan]",,39

# Reference: patent US6156762A, “Indolomorphinan derivative and agent for curing and preventing cerebral disorder” (Toray Industries, Inc., priority 1997, dated 2000)
